According to a melting point compilation (Tetko et al.; mined from patent text by program, amines drawn as free bases though some values may be those of a salt):

Compound | melting point [°C]
CC(C)CC(NC(=O)c1ccc(CBr)cc1)C(=O)NC(C)(C)C#N (stereo unspecified) | 185 to 187
Cc1c(NC(=O)CC(C)(C)C)cc2c(c1C)OC(C)(C)C2CCc1ccccc1 (stereo unspecified) | 158 to 159
Cc1noc(NS(=O)(=O)c2ccsc2C/C=C/c2ccc3c(c2)OCO3)c1Br | 147 to 149
CSc1nc(CCC(F)(F)F)nc2sc(C)cc12 | 81 to 83
Cc1c(C(=O)c2ccc(Cl)c(S(N)(=O)=O)c2)[nH]c2ccccc12 | 205
CC(=O)N1CCN(c2ccc(O)cc2Br)CC1 | 212 to 214
CC(C(=O)N1CCOCC1)N1CCN(c2ccccc2)CC1 (stereo unspecified) | 105 to 107
CCSC1(CCO)C(=O)Nc2ccc(F)cc21 (stereo unspecified) | 125
N#Cc1cc(-c2c3ccccc3cc3sc4ccccc4c23)ccc1OCC(=O)O | 235 to 236
CC(C)(C)C(O)(C=Cc1ccc(Cl)cc1)Cn1cncn1 (stereo unspecified) | 81 to 83.5
COC(=O)c1nc(N(C)Cc2ccccc2)ccc1Oc1nc(OC)cc(OC)n1 | 73 to 75
CCCCCCCCCCCCCCCCCCNC(=O)OCC(CO)OC(=O)NC (stereo unspecified) | 92 to 93
CCCCCCCCCCCCCCCC(=O)OCCCCN | 59 to 61
CNC(NCc1ccc(Cl)nc1)=C(C(=S)NS(C)(=O)=O)[N+](=O)[O-] | 129 to 131
C[C@H](N)C(=O)NC1N=C(C2CCCCC2)c2ccccc2N(C)C1=O (stereo partly specified) | 205 to 206
CCCCCCCCCCCCNC(=O)COc1ccc(O)cc1NCC(=O)O | 122 to 125
Brc1cc(Br)cc(Cc2cc(Br)cc(Br)c2)c1 | 196
O=C(O)C1Cc2ccsc2S1(=O)=O (stereo unspecified) | 189 to 193
c1ccc(-c2cccn3cnnc23)nc1 | 212 to 214
COc1ccc(C(=O)CC(=O)OC(C)(C)C)c(O)c1 | 40 to 42
O=C(O)c1cccc2c1sc1ccccc12 | 253 to 255
CCOC(=O)c1ccc(CCCC2NC(=O)CS2)cc1 (stereo unspecified) | 99 to 100
CCOP(=O)(OCC)c1cc2cc(N)c(Cl)cc2[nH]c1=O | 255 to 260
CCN=C(c1ccc(OC)c(OC)c1)N1CCCc2cc(C3=NNC(=O)SC3C)ccc21 (stereo unspecified) | 208
CC(C)(C)OC(=O)C(C#N)C(=O)c1cc(F)c(F)c(F)c1F (stereo unspecified) | 90 to 92
N#Cc1cnc2cc(-c3csc(CN4CCOCC4)c3)ccc2c1Nc1ccc(Cl)cc1Cl | 203 to 205

Compound | melting point [°C]
COC(=O)NC(C)(C)c1ccc(C)cc1 | 42 to 43
CCCCCCCCN(C=O)C1CC(C)(C)N(C=CC(=O)OCC)C(C)(C)C1 | 58 to 60
Cc1ccc(CNc2nc(Nc3cccc(N)c3)nc(OCC(F)(F)F)n2)o1 | 75 to 77
CCOC(=O)c1c(C)nc(N2CCCCC2)c2nnn(CC)c12 | 45 to 47
CNC(=O)Nc1ccc(CCN2CCC(Nc3nc4ccccc4n3Cc3ccc(F)cc3)CC2)cc1 | 300
COc1c(-c2cc3c(s2)CCCC3=O)ccc2c(=O)c(C(=O)O)cn(C3CC3)c12 | 266 to 267
CCS(=O)(=O)c1ccc(C(=O)O)c(Cl)c1O | 188 to 192
Fc1ccc(CCN2CCC(n3ccc4ccc(Br)cc43)CC2)cc1 | 99 to 101
Cc1cc(C)c(N2CCCc3c2nn(C)c3NC(=O)OC(C)(C)C)c(Cl)c1 | 171 to 176
COc1ccc(-c2cc3cc(Cl)ccc3o2)cc1 | 183 to 185
Oc1c2c(nn1-c1ccc(F)cc1)CCc1cc(F)ccc1-2 | 220 to 221
Nc1cc2c(Nc3ccc(F)c(Br)c3)ncnc2cn1 | 269 to 271
CCOC(=O)c1cnc(-c2cc3cccc(N(C)S(=O)(=O)c4cccs4)c3n2COC)s1 | 142 to 143
N#CCCn1c(=N)sc2cc(OC(F)(F)F)ccc21 | 180
CNC(=O)CCC(=NOCc1ccc(OCc2nc(-c3ccccc3)oc2C)cc1)c1ccccc1 | 141 to 142
CCN(Cc1ccccc1Oc1ccccc1)c1ccc(C(=O)O)cn1 | 170 to 172
COc1ccc2ccc(N)cc2c1 | 157
O=C(O)c1cn2c3c(c(N4CCN(Cc5ccccc5)CC4)ccc3c1=O)CCC2 | 274 to 278
CC(C)(C)OC(=O)N[C@H]1CCCCNC1=O | 147 to 149
Fc1ccc(-c2cc(N3CCC(c4ncc[nH]4)CC3)c3sccc3n2)cc1 | 95
CC(=O)c1ccc(-c2ccc(C#N)o2)cc1 | 122 to 125
CC(C)N1CCN(Cc2ccc(-c3ccc4c(Nc5ccc(Sc6nccn6C)c(Cl)c5)c(C#N)cnc4c3)cc2)CC1 | 193 to 195
CCCCOCCOc1ccc(-c2ccc3c(c2)C=C(C(=O)O)CCN3CC2CCCCC2)cc1 | 124 to 125
COc1ccc2c(c1)Nc1cccc(S(C)(=O)=O)c1S2 | 204 to 206
CN(CCc1cccc(OCC(=O)O)c1)c1cnc(-c2ccccc2)c(-c2ccccc2)n1 | 174 to 176
Cc1sc2cc(C(=O)NCC3(SCc4ccccc4)CCNCC3)[nH]c2c1N(C)S(=O)(=O)c1cccs1 | 222

Compound | melting point [°C]
CSc1nc2cc(C)nn2c2ncccc12 | 190
CC(=O)OCCc1ccccc1S(N)(=O)=O | 116 to 118
O=C1NCCN1c1ccc(S(=O)(=O)Nc2ccc(F)c(F)c2)cc1 | 225 to 226
CCC(NC(C)=O)c1ccc(CN2CCN(c3ccc(F)cc3)CC2)cc1 (stereo unspecified) | 113 to 114
CCCCOC(=O)c1ccc(Nc2nc(Nc3ccc(C(=O)OCCCC)cc3)nc(-c3cccn3Cc3ccccc3)n2)cc1 | 173 to 174
Cn1nc(C(F)(F)F)c(CS(=O)(=O)C2=NOC(C)(C)C2)c1Oc1ccccc1Cl | 67 to 70
Brc1ccc2c(c1)-c1nc(-c3ccccc3)sc1CC2 | 85
CC1(C)CC(O)(C(F)(F)F)C(Nc2cccc3[nH]ncc23)c2ccc(Cl)c(O)c21 (stereo unspecified) | 112 to 120
COc1ccccc1CN1CCc2cc(O)ccc2C1 | 148 to 155
OCCOCCn1ccc2ncnc(Nc3ccc(OCc4cccc(F)c4)c(Cl)c3)c21 | 168 to 169
ICCCC1(c2ccccc2)OCCO1 | 71 to 73
CC(C)(CO)CCCCCC(O)CCCCC(C)(C)CO (stereo unspecified) | 79 to 80
Cc1cc(CCCCCCO)cc(C(C)(C)C)c1O | 45
COc1cc(C(=O)O)ccc1Cn1nnc2ccc(NC(=O)OC3CCCC3)cc21 | 237 to 239
CO[C@@H](Cc1ccc(OCCc2nc(-c3ccc(C(F)(F)F)cc3)oc2C)c2ccccc12)C(=O)O | 167 to 168
N#Cc1cc(Cn2cncn2)cc(-c2ccc(OS(N)(=O)=O)c(Cl)c2)c1 | 163 to 164
Cc1cc(-c2nncc3c(C(C)(C)C)c(OCc4ncnn4C)nn23)no1 | 171 to 174
CCCCc1nn(-c2ccc(NCc3ccccc3)cc2C(F)(F)F)c(=O)n1Cc1ccc(-c2ccccc2S(=O)(=O)NC(=O)c2ccccc2Cl)cc1 | > 107
COc1cc2c3ccc(OC)c(OC)c3n(CCCc3ccccc3)c2cc1OC | 116 to 118
COc1cc(CO)c(-c2cc3c(cc2CO)OCO3)c(OC)c1OC | 123 to 124
Oc1ccc(-c2c3ccccc3cc3sc4ccccc4c23)cc1O | 188 to 189
CCCc1nc2c(N)nc3ccccc3c2n1CC(C)(C)C(=O)N1CCOCC1 | 212 to 214
Cc1ccc(C(=O)NCC(C)O)cc1C (stereo unspecified) | 77 to 78
CCc1cn(C2OC(CN=[N+]=[N-])C(O)C2F)c(=O)[nH]c1=O (stereo unspecified) | 185 to 188
CCOc1ccccc1OCCNC(=O)CCC(=O)c1ccc(F)cc1 | 98 to 100
CC1(c2ccccc2)SCN=C1COc1ccc(C#N)cn1 (stereo unspecified) | 124 to 125

Compound | melting point [°C]
CC1(C)C2CCC1(CN1CN(CC34CCC(CC3)C4(C)C)CN(CC34CCC(CC3)C4(C)C)C1)CC2 | 175 to 180
CN(C)C(=O)c1ccc(C=O)cc1 | 198 to 202
CCOC(=O)c1ccc(OCC(=NO)c2ccc3c(c2)C(C)(C)CCC3(C)C)cc1O | 130
O=C(c1ccn2c1CSC2c1cccnc1)c1c[nH]c2cc(-c3ncccn3)ccc12 (stereo unspecified) | 125 to 128
O=c1oc2c(c(O)c1C(c1cc(NS(=O)(=O)c3cccc4cccnc34)cc(NS(=O)(=O)c3cccc4cccnc34)c1)C1CC1)CCCCCC2 (stereo unspecified) | 139 to 145
CC(C)(CCl)c1cc(Cl)nnc1Br | 79 to 81
CCCCCCCCCCCC1Cc2cc(C(=O)O)ccc2N1 (racemic) | 99 to 103
CCCCOC1=C(c2ccccc2)C(CCC(=O)O)OC1=O (stereo unspecified) | 94 to 96
O=c1c2cc(F)c(N3CCCC3)cc2n(CC2CC2)c(=O)n1OCc1ccccc1 | 198 to 200
CN(C)c1ccc(-c2nc(C#N)c(C#N)nc2C#N)cc1 | 198 to 200
COCc1c(C#CBr)ncc2[nH]c3cccc(OCc4ccccc4)c3c12 | 160
O=C1Nc2cccnc2N(C(=O)NCCN2CCCCC2CNCC2CCCC2)c2ccccc21 (stereo unspecified) | 157 to 158
CN(C(=O)c1ccc2nonc2c1)C1CCN(S(C)(=O)=O)CC1 | 177 to 179
O=S(=O)(Nc1cccc(CCOCc2nc(-c3ccc(C(F)(F)F)cc3)sc2Cl)c1)C(F)(F)F | 107 to 109
COc1cc2c(cc1OC)CC(=O)N(Cc1ccccc1)CC2 | 141 to 142
COc1c(F)cccc1-c1cnn2ccc(N3CCN(C(=O)OC(C)C)CC3)nc12 | 52 to 53
O=C1N(Cc2cccnc2C(F)(F)F)c2ccccc2C12COc1cc3c(cc12)OCCO3 (stereo unspecified) | 219 to 220
CS(=O)c1ccc(C2=C(Br)C(=O)C(C)(C)O2)cc1 (stereo unspecified) | 117 to 118
CC(C)n1nc(Br)c([N+](=O)[O-])c1Br | 72 to 73
COc1ccc(CCC(=O)c2ccc(O)cc2)c(OC)c1 | 126 to 127
CCNC(=O)c1c(Cl)cccc1C(C)(C)C | 121 to 123
CCOC(=O)C1=Cc2cc(Cl)cc(C#N)c2OC1C(F)(F)F (stereo unspecified) | 115 to 116
CC(C)(C(N)=O)c1ccc(Cl)cc1 | 125
